Laboratory results taken from ChEMBL document CHEMBL4393652, “Development of Isoselenocyanate Compounds' Syntheses and Biological Applications” (2019).

Tested on: UACC-903
Assay: Antitumor activity against human UACC-903 cells xenografted in Nude-Foxn1nu mouse assessed as reduction in tumor size after 24 hrs relative to control
Assay type: functional
Set-up: scale not given: the % may be the effect or the level left

[Se]=C=NCCCCc1ccccc1 [PHENYLBUTYL ISOSELENOCYANATE]
Activity: 77%
